The values that follow come from publication PMC6407917, “Identification of GSK3186899/DDD853651 as a Preclinical Development Candidate for the Treatment of Visceral Leishmaniasis” (Journal of Medicinal Chemistry, 2018).

Structures are written as SMILES.

Among the targets are AURKB (Homo sapiens, UniProt Q96GD4); PRKACA (Homo sapiens, UniProt P17612); HIPK2 (Homo sapiens, UniProt Q9H2X6); PLK4 (Homo sapiens, UniProt O00444); SRC (Homo sapiens, UniProt P12931); MAP4K4 (Homo sapiens, UniProt O95819); TNIK (Homo sapiens, UniProt Q9UKE5); CSNK2A2 (Homo sapiens, UniProt P19784); MAP2K3 (Homo sapiens, UniProt P46734); CDK2 (Homo sapiens, UniProt P24941); MAP3K13 (Homo sapiens, UniProt O43283); STK10 (Homo sapiens, UniProt O94804); CAMK2D (Homo sapiens, UniProt Q13557); PIM2 (Homo sapiens, UniProt Q9P1W9); CSK (Homo sapiens, UniProt P41240); FRK (Homo sapiens, UniProt P42685); MAPK7 (Homo sapiens, UniProt Q13164); TAOK2 (Homo sapiens, UniProt Q9UL54); AAK1 (Homo sapiens, UniProt Q2M2I8); RIOK2 (Homo sapiens, UniProt Q9BVS4); PIP4K2B (Homo sapiens, UniProt P78356).

Holding throughout (experiment): biochemical
Common to all, as to parameters: species or system HEK293/K-562/placenta mixed human extract; Kinobeads chemoproteomic competition binding, quantified by TMT LC-MS/MS, dose response up to 20 uM

Chain of PIM2 (Q9P1W9 whole entry): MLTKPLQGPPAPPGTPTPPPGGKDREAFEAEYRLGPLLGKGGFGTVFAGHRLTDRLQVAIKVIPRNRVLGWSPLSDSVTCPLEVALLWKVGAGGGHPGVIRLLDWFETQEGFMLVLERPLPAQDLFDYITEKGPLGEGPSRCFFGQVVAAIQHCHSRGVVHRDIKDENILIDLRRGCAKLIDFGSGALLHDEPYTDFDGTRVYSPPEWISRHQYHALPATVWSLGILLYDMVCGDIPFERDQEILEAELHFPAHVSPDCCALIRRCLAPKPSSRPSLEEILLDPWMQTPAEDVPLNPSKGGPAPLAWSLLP
Chain of PIP4K2B (P78356 whole entry): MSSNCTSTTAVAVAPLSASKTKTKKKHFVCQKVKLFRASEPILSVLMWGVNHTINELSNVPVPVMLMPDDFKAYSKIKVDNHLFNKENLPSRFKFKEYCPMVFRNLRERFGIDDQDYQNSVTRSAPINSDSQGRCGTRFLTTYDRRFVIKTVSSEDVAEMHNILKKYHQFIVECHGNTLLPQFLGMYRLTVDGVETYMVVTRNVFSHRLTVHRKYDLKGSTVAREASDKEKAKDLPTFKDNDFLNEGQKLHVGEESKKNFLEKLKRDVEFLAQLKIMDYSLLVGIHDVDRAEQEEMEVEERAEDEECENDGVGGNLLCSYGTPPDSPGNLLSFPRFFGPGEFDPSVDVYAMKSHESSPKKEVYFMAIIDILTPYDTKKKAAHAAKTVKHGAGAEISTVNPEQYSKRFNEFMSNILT
Chain of MAPK7 (Q13164 whole entry): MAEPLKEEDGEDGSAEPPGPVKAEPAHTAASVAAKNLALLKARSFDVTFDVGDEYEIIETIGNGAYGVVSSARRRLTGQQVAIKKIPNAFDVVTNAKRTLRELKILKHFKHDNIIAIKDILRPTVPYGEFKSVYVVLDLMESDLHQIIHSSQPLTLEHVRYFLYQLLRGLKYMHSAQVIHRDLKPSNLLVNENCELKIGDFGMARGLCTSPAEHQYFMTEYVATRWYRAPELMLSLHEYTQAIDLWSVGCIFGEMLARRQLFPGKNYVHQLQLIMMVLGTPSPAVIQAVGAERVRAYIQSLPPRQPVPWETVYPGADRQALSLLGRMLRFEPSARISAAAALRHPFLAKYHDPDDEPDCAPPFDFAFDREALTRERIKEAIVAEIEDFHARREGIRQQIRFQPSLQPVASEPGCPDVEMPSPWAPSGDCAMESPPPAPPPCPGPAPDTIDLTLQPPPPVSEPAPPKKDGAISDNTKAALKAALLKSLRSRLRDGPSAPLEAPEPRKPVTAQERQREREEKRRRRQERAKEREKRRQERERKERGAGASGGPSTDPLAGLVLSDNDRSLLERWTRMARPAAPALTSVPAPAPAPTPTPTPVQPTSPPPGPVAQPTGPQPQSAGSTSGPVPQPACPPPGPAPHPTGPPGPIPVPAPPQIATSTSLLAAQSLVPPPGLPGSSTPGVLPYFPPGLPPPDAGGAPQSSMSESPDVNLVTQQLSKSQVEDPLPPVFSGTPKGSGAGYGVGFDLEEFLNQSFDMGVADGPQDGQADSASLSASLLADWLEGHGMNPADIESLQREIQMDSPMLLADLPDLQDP
Chain of RIOK2 (Q9BVS4 whole entry): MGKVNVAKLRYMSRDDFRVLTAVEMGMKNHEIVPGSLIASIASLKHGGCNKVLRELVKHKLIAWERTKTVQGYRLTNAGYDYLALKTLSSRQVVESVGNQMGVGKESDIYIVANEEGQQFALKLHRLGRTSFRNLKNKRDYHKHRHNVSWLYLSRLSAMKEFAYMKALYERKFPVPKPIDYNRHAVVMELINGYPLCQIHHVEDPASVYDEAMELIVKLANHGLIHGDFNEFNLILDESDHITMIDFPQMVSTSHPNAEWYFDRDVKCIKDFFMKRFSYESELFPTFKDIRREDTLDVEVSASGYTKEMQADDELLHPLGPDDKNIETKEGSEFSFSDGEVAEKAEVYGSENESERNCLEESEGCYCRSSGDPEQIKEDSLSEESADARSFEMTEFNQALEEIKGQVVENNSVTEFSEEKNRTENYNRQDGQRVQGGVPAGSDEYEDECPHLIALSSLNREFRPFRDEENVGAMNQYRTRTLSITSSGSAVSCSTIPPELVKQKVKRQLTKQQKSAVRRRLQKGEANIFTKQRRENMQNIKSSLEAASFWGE
Chain of AAK1 (Q2M2I8 whole entry): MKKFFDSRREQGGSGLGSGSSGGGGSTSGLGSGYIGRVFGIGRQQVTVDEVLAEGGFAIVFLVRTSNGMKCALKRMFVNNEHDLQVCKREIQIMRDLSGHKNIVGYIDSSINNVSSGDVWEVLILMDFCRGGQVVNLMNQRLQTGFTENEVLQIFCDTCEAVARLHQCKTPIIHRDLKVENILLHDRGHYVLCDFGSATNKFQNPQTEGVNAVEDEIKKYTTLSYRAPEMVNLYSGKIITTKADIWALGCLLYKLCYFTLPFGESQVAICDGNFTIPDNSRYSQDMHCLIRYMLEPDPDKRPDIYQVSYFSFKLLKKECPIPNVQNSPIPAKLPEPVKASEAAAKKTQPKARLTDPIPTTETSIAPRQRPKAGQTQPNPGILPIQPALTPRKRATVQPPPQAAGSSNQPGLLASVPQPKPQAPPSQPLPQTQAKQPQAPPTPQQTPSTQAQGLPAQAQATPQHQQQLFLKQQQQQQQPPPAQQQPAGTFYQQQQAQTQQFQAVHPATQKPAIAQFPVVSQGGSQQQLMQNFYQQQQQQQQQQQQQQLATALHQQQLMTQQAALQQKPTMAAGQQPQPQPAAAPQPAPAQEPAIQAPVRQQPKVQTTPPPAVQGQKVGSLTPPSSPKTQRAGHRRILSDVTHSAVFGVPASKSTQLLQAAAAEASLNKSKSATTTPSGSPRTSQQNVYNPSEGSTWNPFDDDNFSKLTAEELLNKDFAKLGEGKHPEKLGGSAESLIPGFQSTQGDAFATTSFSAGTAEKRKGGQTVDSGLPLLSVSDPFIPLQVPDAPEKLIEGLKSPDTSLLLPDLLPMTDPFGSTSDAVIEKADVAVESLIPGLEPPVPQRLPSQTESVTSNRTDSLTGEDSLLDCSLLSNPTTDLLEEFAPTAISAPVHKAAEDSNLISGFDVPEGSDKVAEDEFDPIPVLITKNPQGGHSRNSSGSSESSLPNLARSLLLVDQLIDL
Chain of CSNK2A2 (P19784 whole entry): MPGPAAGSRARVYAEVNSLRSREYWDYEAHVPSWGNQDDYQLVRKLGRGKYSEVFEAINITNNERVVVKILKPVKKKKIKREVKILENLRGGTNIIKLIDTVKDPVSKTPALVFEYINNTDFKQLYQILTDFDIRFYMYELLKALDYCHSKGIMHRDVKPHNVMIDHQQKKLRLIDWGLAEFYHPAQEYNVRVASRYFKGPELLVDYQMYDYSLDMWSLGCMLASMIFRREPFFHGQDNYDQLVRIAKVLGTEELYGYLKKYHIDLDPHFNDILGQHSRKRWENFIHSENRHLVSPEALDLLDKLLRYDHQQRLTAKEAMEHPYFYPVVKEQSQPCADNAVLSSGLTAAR
Chain of HIPK2 (Q9H2X6 whole entry): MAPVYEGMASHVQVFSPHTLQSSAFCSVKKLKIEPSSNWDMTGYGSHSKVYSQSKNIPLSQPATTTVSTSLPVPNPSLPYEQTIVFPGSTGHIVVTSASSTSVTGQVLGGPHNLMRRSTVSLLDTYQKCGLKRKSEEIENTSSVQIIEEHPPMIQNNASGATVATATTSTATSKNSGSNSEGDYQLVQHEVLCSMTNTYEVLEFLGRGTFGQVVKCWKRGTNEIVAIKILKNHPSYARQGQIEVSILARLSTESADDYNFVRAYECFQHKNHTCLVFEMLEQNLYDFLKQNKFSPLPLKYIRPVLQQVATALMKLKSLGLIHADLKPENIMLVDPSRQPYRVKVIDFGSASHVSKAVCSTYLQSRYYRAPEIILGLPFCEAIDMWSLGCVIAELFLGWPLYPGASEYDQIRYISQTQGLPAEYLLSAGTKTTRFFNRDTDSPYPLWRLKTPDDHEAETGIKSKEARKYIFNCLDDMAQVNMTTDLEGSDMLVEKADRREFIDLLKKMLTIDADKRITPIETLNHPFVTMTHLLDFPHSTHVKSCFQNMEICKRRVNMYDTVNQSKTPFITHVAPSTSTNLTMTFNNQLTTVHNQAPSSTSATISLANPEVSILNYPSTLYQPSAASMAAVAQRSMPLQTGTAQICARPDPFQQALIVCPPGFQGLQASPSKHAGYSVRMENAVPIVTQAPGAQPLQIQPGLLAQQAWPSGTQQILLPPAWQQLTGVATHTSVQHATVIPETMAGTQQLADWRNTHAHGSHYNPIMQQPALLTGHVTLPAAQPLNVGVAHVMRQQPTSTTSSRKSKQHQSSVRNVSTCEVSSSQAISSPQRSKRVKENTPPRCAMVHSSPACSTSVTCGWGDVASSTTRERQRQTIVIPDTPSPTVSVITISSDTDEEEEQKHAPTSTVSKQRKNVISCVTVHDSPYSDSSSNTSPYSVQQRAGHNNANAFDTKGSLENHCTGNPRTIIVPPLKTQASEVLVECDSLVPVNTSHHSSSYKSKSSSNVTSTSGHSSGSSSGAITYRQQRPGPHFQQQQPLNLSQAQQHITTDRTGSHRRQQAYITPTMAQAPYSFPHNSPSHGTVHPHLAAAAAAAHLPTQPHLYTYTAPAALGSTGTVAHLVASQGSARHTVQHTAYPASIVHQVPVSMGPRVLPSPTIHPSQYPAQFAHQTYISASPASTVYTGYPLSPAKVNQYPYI
Chain of AURKB (Q96GD4 whole entry): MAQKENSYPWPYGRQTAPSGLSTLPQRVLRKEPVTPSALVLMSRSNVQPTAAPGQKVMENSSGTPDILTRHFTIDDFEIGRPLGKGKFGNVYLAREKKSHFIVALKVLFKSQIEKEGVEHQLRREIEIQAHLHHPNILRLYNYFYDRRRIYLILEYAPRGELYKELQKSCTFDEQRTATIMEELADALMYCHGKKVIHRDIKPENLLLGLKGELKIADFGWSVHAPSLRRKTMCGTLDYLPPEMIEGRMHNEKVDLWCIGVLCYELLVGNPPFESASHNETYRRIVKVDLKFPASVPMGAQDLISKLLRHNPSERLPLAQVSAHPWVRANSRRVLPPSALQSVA

A word on the IC50: it is the point on the concentration scale where inhibition reaches its midpoint. A low value points to greater potency in that assay. Regarding `COc1nc(N[C@H]2CC[C@H](NS(=O)(=O)CC(C)C)CC2)nc2[nH]nc(N3CCOC[C@H]3C)c12` [compound 39, N-(trans-4-((4-Methoxy-3-((R)-3-methylmorpholino)-1H-pyrazolo[3,4-d]pyrimidin-6-yl)amino)cyclohexyl)-2-methylpropane-1-sulfonamide], the IC50 at AURKB, on PRKACA, at HIPK2, at PLK4, at SRC and on MAP4K4 was ≥ 20 µM each time. The IC50 was ≥ 20 µM on TNIK; ≥ 20 µM at CSNK2A2; ≥ 20 µM on MAP2K3; 4.5 µM on CDK2; ≥ 20 µM on MAP3K13; ≥ 20 µM at STK10. The IC50 at CAMK2D, at PIM2, on CSK, at FRK, at MAPK7 and at TAOK2 was ≥ 20 µM throughout. Also, the 50% inhibitory concentration (IC50) on AAK1, on RIOK2 and at PIP4K2B was ≥ 20 µM in each case.
